Data on three compounds can be found in patent US4596806A, “7-piperidino-1,2,3,5-tetrahydroimidazo[2,1-b]-quinazolin-2-one having platelet aggregation inhibitory activity” (Daiichi Seiyaku Co., Ltd., priority 1983, dated 1986).

Series [1] deals with platelet aggregation. The experiment in a line: Test of Platelet Aggregation Inhibition (in vitro), rat PRP. It is filed as cell-based, rat (Wistar Imamichi). The settings on record: rat blood, read-out: Platelet Aggregation Inhibitory Activity (in vitro: IC50). The procedure: (§1) The test was performed as follows in accordance with the method of Ashida et al, Thrombosis and Haemostasis, Vol. 40, p542 (1979).
(§2) Blood was taken by puncture from the heart of a Wistar Imamichi rat under anesthesia with pentobarbital into a syringe containing 1/10 volume of a 3.13% aqueous solution of sodium citrate dihydrate, and the citrated blood was centrifuged to obtain a platelet-rich-plasma (PRP). In the same manner, citrated blood was collected from the vein of a healthy human who had not taken aspirin or any other anti-inflammatory agent since before 10 days, followed by centrifugation to obtain PRP. 0.005 ml of each test compound was added to 0.445 ml each of these PRP samples, and the system was warmed at 30° C. for 1 minute. 0.05 ml of an aggregation inducer (ADP or collagen) was then added thereto, and platelet aggregation was determined according to the method of Born, Nature, Vol. 194, p927 (1962). The inhibitory activity of platelet aggregation was expressed in terms of 50% inhibition concentration, and the results obtained are shown in Table 2.

The subject of series [2] is platelet aggregation. The experiment in a line: Test of Platelet Aggregation Inhibition (in vitro), human PRP. It counts as cell-based. The settings on record: for IC50: Homo sapiens, Platelet, human blood, read-out: Platelet Aggregation Inhibitory Activity (in vitro: IC50). The procedure: as §1, §2
Series [3] has as its system platelet aggregation. Briefly: Test of Platelet Aggregation Inhibition (ex vivo, p.o.). It counts as in vivo, rat (male Wistar Imamichi). The note with it: for inhibition at 1 mg/kg / inhibition at 10 mg/kg: Rattus norvegicus, Platelet, po, 1 h, read-out: Platelet Aggregation Inhibitory Activity (ex vivo: % inhibition); for inhibition at 1 mg/kg: p.o. 1 mg/Kg; for inhibition at 10 mg/kg: p.o. 10 mg/Kg; for aggregation inhibitory activity ex vivo (in words): p.o. 10 mg/Kg or 1 mg/Kg, ADP- or collagen-induced.
Experimental: One hour later, citrated blood was taken from the heart, and platelet aggregation was determined in the same manner as described in Test Example 2.

Series [4] is described as follows: Solubility Test (water-solubility). It counts as physicochemical.
A further series relates to circulatory system. The experiment in a line: Test of Influence on Circulatory System (blood pressure, heart beat). It is filed as in vivo, rat (male normal SLC-Wistar). The note with it: p.o. 50 mg/Kg. The procedure: 5 or 6 male normal SLC-Wistar rats per group (body weight: 205-255 g) orally received 50 mg/Kg of the test compound, and the blood pressure (tail cuff method) and the heart beats were measured with the passage of time in order to elucidate influences of the test compound on the circulatory system.

[5] abbreviates: pH 2, Tap Water, solution pH about 2.

The structures appear in SMILES notation. Where a name gives a salt, the structure may show the parent alone. Read-outs that look alike come from different tables or passages of the source.

`Cl.Cl.Nc1ccc2c(c1)CN1CC(=O)NC1=N2` [BL-7-NH2, 7-amino-1,2,3,5-tetrahydroimidazo[2,1-b]quinazolin-2-one dihydrochloride]: the IC50 amounted to 170000 nM in the series on platelet aggregation [1] (inducer ADP), 16000 nM in the series on platelet aggregation [1] (inducer collagen), 50000 nM with platelet aggregation [2] (inducer ADP) and 28000 nM in the series with platelet aggregation [2] (inducer collagen). In the series with platelet aggregation [2] (in vitro, Table 2 results (human and rat PRP)), the “anti-platelet aggregation activity (in words)” value is on record as “scarcely exhibits platelet aggregation inhibitory activity”.
`Cc1cccc2c1CN1CC(=O)NC1=N2.Cl` [BL-3459, 6-methyl-1,2,3,5-tetrahydroimidazo[2,1-b]quinazolin-2-one hydrochloride]: the IC50 in the series on platelet aggregation [1] (inducer ADP) was determined as 5000 nM; in the series with platelet aggregation [1] (inducer collagen) it was 760 nM; in the series on platelet aggregation [2] (inducer ADP), 1700 nM; with platelet aggregation [2] (inducer collagen), 700 nM. The inhibition at 1 mg/kg is 12% in the series on platelet aggregation [3] (inducer ADP) and 41% in the series on platelet aggregation [3] (inducer collagen). Moreover, the inhibition at 10 mg/kg in the series on platelet aggregation [3] (inducer ADP) was found to be 31%; with platelet aggregation [3] (inducer collagen) it was 54%. Also, the “aggregation inhibitory activity ex vivo (in words)” value with platelet aggregation [3] is reported as “cannot be regarded significant”. In addition, the solubility in series [4] (Water at pH 4) came to 10 µg/mL; in series [4] (setting [5]) it was 100 µg/mL. Moreover, the “Increase in Heart Beat” value with circulatory system (1 hr after admin.) is 18%; in the series with circulatory system (2 hr after admin.), 20%; in the series on circulatory system (3 hr after admin.), 17%; in the series on circulatory system (5 hr after admin.), 18%; in the series with circulatory system (6 hr after admin.) it was 19%. Also, the “Reduction in Blood Pressure” value with circulatory system (1 hr after admin.) is given as 23%; in the series on circulatory system (2 hr after admin.) it was 28%; with circulatory system (3 hr after admin.), 26%; in the series with circulatory system (5 hr after admin.), 34%; in the series with circulatory system (6 hr after admin.), 35%; with circulatory system (24 hr after admin.) it was 12%.
With `O=C1CN2Cc3c(ccc(Cl)c3Cl)N=C2N1` [BL-4162, 6,7-dichloro-1,2,3,5-tetrahydro[2,1-b]quinazolin-2-one hydrochloride], the IC50 with platelet aggregation [1] (inducer ADP) stood at 800 nM; in the series with platelet aggregation [1] (inducer collagen), 20 nM; in the series on platelet aggregation [2] (inducer ADP) it was 1200 nM; in the series with platelet aggregation [2] (inducer collagen), 500 nM. Besides, the values for the inhibition at 1 mg/kg in the series with platelet aggregation [3] (inducer ADP) and with platelet aggregation [3] (inducer collagen) were 10% and 33%, respectively. The inhibition at 10 mg/kg in the series with platelet aggregation [3] (inducer ADP) amounted to 8%; in the series with platelet aggregation [3] (inducer collagen), 53%. Further, the “aggregation inhibitory activity ex vivo (in words)” value in the series on platelet aggregation [3] is “cannot be regarded significant”. The solubility in series [4] (Water at pH 4) and in series [4] (setting [5]) was 10 µg/mL throughout. Moreover, the “Increase in Heart Beat” value in the series with circulatory system (1 hr after admin.) was determined as 28%; in the series on circulatory system (2 hr after admin.), 37%; in the series with circulatory system (3 hr after admin.) it was 31%; with circulatory system (4 hr after admin.) it was 37%; in the series with circulatory system (5 hr after admin.), 31%; in the series with circulatory system (6 hr after admin.), 31%. Moreover, the “Reduction in Blood Pressure” value with circulatory system (1 hr after admin.) was found to be 11%; in the series with circulatory system (2 hr after admin.) it was 16%; in the series with circulatory system (3 hr after admin.), 17%; in the series with circulatory system (4 hr after admin.) it was 14%; in the series on circulatory system (5 hr after admin.), 14%; in the series with circulatory system (6 hr after admin.) it was 13%.

Usually IC50 stands for the midpoint of a concentration-inhibition curve. Broadly, the inhibition is the drop in the measured response relative to a control, in per cent. A word on the solubility: it is how much of the substance goes into solution per volume. High values mean a readily soluble substance, low ones a poorly soluble substance.
